Where a name gives a salt, the structure may show the parent alone. A value given as a limit tells only on which side of the number the result lay.

One data set addresses HIV-1 integrase (Human immunodeficiency virus type 1 group M subtype B, UniProt P12497). Description: HIV-1 integrase inhibition assay (microtiter plate, substrate/target DNA, OD 405 nm).

Protocol for HIV-1 integrase: (2) Calculations of the Percent Inhibitions (the IC50 Values of Test Compounds)
Streptavidin, obtained from Vector Laboratories, was dissolved in 0.1 M carbonate buffer (composition: 90 mM Na2CO3, 10 mM NaHCO3) at concentration of 40 μg/ml. After coating each well of microtiter plates (obtained from NUNC) with 50 μl of the above solution at 4° C. over night, each well was washed twice with PBS (composition: 13.7 mM NaCl, 0.27 mM KCl, 0.43 mM Na2HPO4, 0.14 mM KH2PO4) and blocked with 300 μl of 1% skim milk in PBS for 30 min. Additionally, each well was washed twice with PBS and added 50 μl of substrate DNA solution (2 pmol/μl). The microtiter plates were kept at room temperature for 30 min. Then, each well was washed twice with PBS and once with H2O.
Subsequently, in the each well prepared above were added 45 μl of the reaction buffer prepared from 12 μl of the buffer (composition: 150 mM MOPS (pH 7.2), 75 mM MnCl2, 50 mM 2-mercaptoethanol, 25% glycerol, 500 μg/ml bovine serum albumin-fraction V), 1 μl of target DNA (5 pmol/μl), and 32 μl of the distilled water. Additionally, 6 μl of either a test compound in DMSO or DMSO for positive control(PC) was mixed with the above reaction buffer, then 9 μl of an integrase solution (30 pmol) was added and mixed well. In the well of negative control (NC) was added 9 μl of the integrase dilution buffer (composition: 20 mM MOPS (pH7.2), 400 mM potassium glutamate, 1 mM EDTA, 0.1% NP-40, 20% glycerol, 1 mM DTT, 4M urea).
The microtiter plates were incubated at 30° C. for 1 hour. The reaction solution was removed and each well was washed twice with PBS. Subsequently, each well of the microtiter plates was filled with 100 μl of anti-digoxigenin antibody labeled with alkaline phosphatase (Sheep Fab fragment: obtained from Boehringer) and incubated at 30° C. for 1 hour. Then, each well was washed twice with 0.05% Tween20 in PBS and once with PBS. Next, 150 μl of the Alkaline phosphatase reaction buffer (composition: 10 mM p-Nitrophenylphosphate (obtained from Vector Laboratories), 5 mM MgCl2, 100 mM NaCl, 100 mM Tris-HCl (pH 9.5))was added in each well. […] The optical density (OD) at 405 nm of each well was measured and the percent inhibition was determined by the following expression.
The percent inhibition (%)=100[1-{(C abs.−NC abs.)/(PC abs.−NC abs.)}]
C abs.; the OD of the well of the compounds
NC abs.: the OD of the negative control (NC)
PC abs.: the OD of the positive control (PC)
IC50(μg/ml)=x−{(X−50)(x−y)/(X−Y)}

As a reminder, the IC50 is the concentration that inhibits the measured activity by half. In general, melting point refers to the temperature, or range, at which the solid turns liquid. Take `O=C(C=C(O)c1nc[nH]n1)c1cnc(Cc2ccc(F)cc2)o1` [I-150, 1-[2-(4-Fluorobenzyl)oxazolyl-5-yl]-3-hydroxy-3-(1H-1,2,4-triazol-3-yl)-propenone]: the melting point was 200 to 203 °C. The IC50 against HIV-1 integrase is 3120 nM.

`O=C(/C=C(\O)c1nc[nH]n1)c1cc(C(=O)O)n(Cc2ccccc2)c1` [I-2, 1-[(1-Benzyl-5-carboxy)pyrrol-3-yl]-3-hydroxy-3-(1H-1,2,4-triazol-3-yl)-propenone]: the melting point was in the range of 264 to 265 °C. The half-maximal inhibitory concentration (IC50) on HIV-1 integrase is 2960 nM.

With `O=C(Nc1nccs1)C(O)=CC(=O)c1ccc(Cc2ccc(F)cc2)o1` [I-136, 4-[5-(4-Fluorobenzyl)furan-2-yl]-2-hydroxy-4-oxo-2-butenoic acid thiazol-2-yl amide], the melting point is 198 °C (dec.).

`O=C(C=C(O)c1nc[nH]n1)c1ccc(Cc2ccc(F)cc2F)o1` [I-74, 1-[5-(2,4-Difluorobenzyl)furan-2-yl]-3-hydroxy-3-(1H-1,2,4-triazol-3-yl)-propenone] displayed a melting point of 171 to 173 °C. Besides, the IC50 at HIV-1 integrase is 1300 nM.

In the case of `O=C(C=C(O)c1ncc[nH]1)c1ccc(Cc2ccc(F)cc2)o1` [I-101, 1-[5-(4-Fluorobenzyl)furan-2-yl]-3-hydroxy-3-(1H-imidazol-2-yl)-propenone hydrochloride], the IC50 at HIV-1 integrase is 1700 nM.

`O=C(C=C(O)c1nn[nH]n1)c1c[nH]cc1CCc1ccccc1` [I-25, 3-Hydroxy-1-[(4-(2-phenylethyl))pyrrol-3-yl]-3-(2H-tetrazol-5-yl)-propenone] gave a melting point of 228 to 230 °C.

Regarding `O=C(C=C(O)c1nc[nH]n1)c1ccc(Cc2cccs2)o1` [I-83, 3-Hydroxy-1-[[5-(thiophen-2-yl)methyl]furan-2-yl]-3-(1H-1,2,4-triazol-3-yl)-propenone], the melting point is 207 to 208 °C. At HIV-1 integrase, this compound showed an IC50 of 4980 nM.

Consider `O=C(C=C(O)c1nc[nH]n1)c1ccoc1Cc1ccc(F)cc1` [I-49, 1-[2-(4-Fluorobenzyl)furan-3-yl]-3-hydroxy-3-(1H-1,2,4-triazol-3-yl)-propenone], for which the melting point is 170 to 177 °C.

Compound `O=C(O)C(O)=CC(=O)c1ccn(S(=O)(=O)c2ccccc2)c1` [I-23, 4-(1-Benzenesulfonylpyrrol-3-yl)-2-hydroxy-4-oxo-2-butenoic acid] came in with a melting point of 186 to 188 °C.

With `COC(=O)C(O)=CC(=O)c1ccc(Cc2ccc(F)cc2)o1` [I-53, 4-[5-(4-Fluorobenzyl)furan-2-yl]-2-hydroxy-4-oxo-2-butenoic acid methyl ester], the melting point lay within 102 to 104 °C. The compound also had an IC50 against HIV-1 integrase of 7890 nM.

In turn, `O=C(C=C(O)c1nn[nH]n1)c1ccoc1Cc1ccc(F)cc1` [I-52, 1-[2-(4-Fluorobenzyl)furan-3-yl]-3-hydroxy-3-(2H-tetrazol-5-yl)-propenone] showed a melting point of 150 to 153 °C.

On to `O=C(C=C(O)c1nccs1)c1ccc(Cc2ccc(F)cc2)o1` [I-104, 1-[5-(4-Fluorobenzyl)furan-2-yl]-3-hydroxy-3-(thiazol-2-yl)-propenone], for which, at HIV-1 integrase, inhibition was half-maximal at 1760 nM (IC50).

As to `O=C(C=C(O)c1nc[nH]n1)c1occc1Cc1ccc(F)cc1` [I-45, 1-[3-(4-Fluorobenzyl)furan-2yl]-3-hydroxy-3-(1H-1,2,4-triazol-3-yl)-propenone], the melting point is 221 to 223 °C.

Regarding `O=C(Nc1nc[nH]n1)C(O)=CC(=O)c1ccc(Cc2ccc(F)cc2)o1` [I-138, 4-[5-(4-Fluorobenzyl)furan-2-yl]-2-hydroxy-4-oxo-2-butenoic acid (1H-1,2,4-triazol-3-yl)amide], the melting point was 250 °C (dec.).

Consider `O=C(Nc1nncs1)C(O)=CC(=O)c1ccc(Cc2ccc(F)cc2)o1` [I-139, 4-[5-(4-Fluorobenzyl)furan-2-yl]-2-hydroxy-4-oxo-2-butenoic acid ([1,3,4]thiadiazol-2-yl)amide], for which the melting point is 199 to 201 °C (dec.).

The compound `O=C(C=C(O)c1ncc[nH]1)c1ccc(Cc2ccc(F)cc2)o1` (as salt: hydrochloride) [I-101, 1-[5-(4-Fluorobenzyl)furan-2-yl]-3-hydroxy-3-(1H-imidazol-2-yl)-propenone hydrochloride] returned a melting point of 186 to 191 °C.

In the case of `NC(=O)C(O)=CC(=O)c1ccc(Cc2ccc(F)cc2)o1` [I-134, 4-[5-(4-Fluorobenzyl)furan-2-yl]-2-hydroxy-4-oxo-2-butenoic acid amide], the melting point lay within 113 to 115 °C.

`CCCn1cc(Cc2ccc(F)cc2)c(C(=O)C=C(O)c2nc[nH]n2)c1` [I-35, 1-[[4-(4-Fluorobenzyl)-1-n-propyl]pyrrol-3-yl]-3-hydroxy-3-(1H-1,2,4-triazol-3-yl)-propenone]: the melting point fell in the range of 210 to 211 °C.

In turn, `O=C(C=C(O)c1nc[nH]n1)c1c[nH]cc1Cc1ccc(F)cc1` [I-14, 1-[4-(4-Fluorobenzyl)pyrrol-3-yl]-3-hydroxy-3-(1H-1,2,4-triazol-3-yl)-propenone] gave a melting point of 210 to 213 °C.

For the compound `O=C(Nc1ccccc1)C(O)=CC(=O)c1ccc(Cc2ccc(F)cc2)o1` [I-137, 4-[5-(4-Fluorobenzyl)furan-2-yl]-2-hydroxy-4-oxo-2-butenoic acid phenyl amide], the melting point was 132 to 134 °C.

Take `O=C(C=C(O)c1ncccn1)c1cnc(Cc2ccc(F)cc2)o1` [I-152, 1-[2-(4-Fluorobenzyl)oxazolyl-5-yl]-3-hydroxy-3-(pyrimidin-2-yl)-propenone]: the melting point fell in the range of 97 to 100 °C.

As to `O=C(Nc1ccccn1)C(O)=CC(=O)c1ccc(Cc2ccc(F)cc2)o1` [I-135, 4-[5-(4-Fluorobenzyl)furan-2-yl]-2-hydroxy-4-oxo-2-butenoic acid pyridin-2-yl amide], the melting point was more than 250 °C.

Take `O=C(C=C(O)c1nn[nH]n1)c1cn(S(=O)(=O)c2ccccc2)cc1CCc1ccccc1` [I-31, 1-[[1-Benzenesulfonyl-4-(2-phenylethyl)]pyrrol-3-yl]-3-hydroxy-3-(2H-tetrazol-5-yl)-propenone]: the melting point was in the range of 178 to 181 °C.

The compound `O=C(C=C(O)c1nn[nH]n1)c1occc1Cc1ccc(F)cc1` [I-46, 1-[3-(4-Fluorobenzyl)furan-2-yl]-3-hydroxy-3-(2H-tetrazol-5-yl)-propenone] yielded a melting point of 171 to 174 °C.

As for `O=C(O)C(O)=CC(=O)c1cc[nH]c1` [I-22, 2-Hydroxy-4-oxo-4-(pyrrol-3-yl)-2-butenoic acid], the melting point lay in the range of 185 to 192 °C.

In the case of `O=C(C=C(O)c1nn[nH]n1)c1ccc(Cc2ccc(F)cc2)o1` [I-55, 1-[5-(4-Fluorobenzyl)furan-2-yl]-3-hydroxy-3-(2H-tetrazol-5-yl)-propenone], the melting point was 121 to 123 °C.

The compound `O=C(C=C(O)c1ccccn1)c1cnc(Cc2ccc(F)cc2)o1` [I-151, 1-[2-(4-Fluorobenzyl)oxazolyl-5-yl]-3-hydroxy-3-(pyridin-2-yl)-propenone] registered a melting point of 108 to 109 °C.

As for `O=C(C=C(O)c1ccccn1)c1ccc(Cc2ccc(F)cc2)o1` [I-106, 1-[5-(4-Fluorobenzyl)furan-2-yl]-3-hydroxy-3-(pyridin-2-yl)-propenone], the melting point lay within 84 to 85 °C.

For the compound `O=C(C=C(O)c1nc[nH]n1)c1ccc(Sc2ccc(F)cc2)o1` [I-68, 1-[5-(4-Fluorophenylthio)furan-2-yl]-3-hydroxy-3-(1H-1,2,4-triazol-3-yl)-propenone], at HIV-1 integrase, the IC50 is 996 nM.

(Values after US6620841B1, “Aromatic heterocycle compounds having HIV integrase inhibiting activities” (Shionogi & Co., Ltd., priority 1998, dated 2003).)
